Entries after “also recorded” stand apart in the source; their conditions may differ.
Experiments:
human PD-L2 (hPD-L2) = target: T1, human PD-L2 (hPD-L2) (Homo sapiens, UniProt Q9BQ51); assay: Radiolabeled [35S] peptide binding assay on hPD-L2*; conditions: [35S]-labeled peptide
T1 construct: The hPD-L2* vector included amino acids L20-T220, an Avi Tag and a hexahistidine tag; hexahistidine tag; made in house; host or cells: Expi293F
T1 sequence (Q9BQ51 20-220): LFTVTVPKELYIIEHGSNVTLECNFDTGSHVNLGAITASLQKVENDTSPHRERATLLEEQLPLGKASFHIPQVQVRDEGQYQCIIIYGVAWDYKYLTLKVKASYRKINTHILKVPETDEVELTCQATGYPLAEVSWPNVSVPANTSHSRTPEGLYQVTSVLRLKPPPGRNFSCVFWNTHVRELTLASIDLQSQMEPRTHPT
Procedure: (§1) SPAM Peptide Selectively Binds to hPD-L1. SPAM was also tested for binding specificity towards mouse PD-L1 (mPD-L1) and human PD-L2 (hPD-L2) using radioactive binding assays. SPAM peptide mRNA was translated in vitro in the presence of [^35S]-methionine to generate [^35S]-labeled SPAM peptide.
(§2) [^35S]-labeled peptides were translated as described above by including 2 μCi labeled methionine (Perkin Elmer) per 10 pmol of template in the translation reaction. Each peptide was tested with a […] (for X9-library derived peptides) (SEQ ID NO: 11) or a […] (for X17-library derived peptides) (SEQ ID NO: 12) C-terminal sequence. […] The supernatant was removed and was counted. The beads were subsequently washed three times with 1 mL of blocking buffer and the washes were also counted. Finally, the beads were resuspended in 1 mL of blocking buffer and were counted separately. The ratio of the counts remaining on the beads to the total counts added to the binding reaction (the sum of the counts for supernatant, washes, and beads) was calculated to determine the percent bound.

hPD-L1 [1] = target: T2, hPD-L1 (Homo sapiens, UniProt Q9NZQ7); assay: hPD-L1 binding of [35S]-SPAM after incubation in 25% human serum; type: in vitro ADME; set-up: designed from A18 to T239 with a methionine added to the N-terminus; hexahistidine tag (C); made in house; conditions: 37° C.
Procedure: We performed two complementary assays to determine what effect serum has on the SPAM/hPD-L1 interaction.
In a complementary test, SPAM was in vitro translated and [^35S]-labeled as described above. After purification as above, the [^35S]-labeled peptide-RNA fusions were incubated with DMEM media supplemented with 25% (v/v) single donor human plasma at 37° C. in triplicate for 0, 60, 120, 240 and 480 min. The binding of serum incubated peptides was then evaluated on hPD-L1 immobilized beads using 75 pmol hPD-L1 immobilized on streptavidin agarose beads (Thermo Fisher scientific) in DMEM supplemented with 25% Serum buffer and 0.02 mM biotin at 4° C. for 1 h. The supernatant was removed and was counted. The beads were subsequently washed three times with 1 mL of blocking buffer and the washes were also counted. Finally, the beads were resuspended in 1 mL of blocking buffer and were counted separately. The ratio of the counts remaining on the beads to the total counts added to the binding reaction (the sum of the counts for supernatant, washes, and beads) was calculated to determine the percent bound.
Target sequence in this assay (Q9NZQ7 with tags, fused parts or gaps): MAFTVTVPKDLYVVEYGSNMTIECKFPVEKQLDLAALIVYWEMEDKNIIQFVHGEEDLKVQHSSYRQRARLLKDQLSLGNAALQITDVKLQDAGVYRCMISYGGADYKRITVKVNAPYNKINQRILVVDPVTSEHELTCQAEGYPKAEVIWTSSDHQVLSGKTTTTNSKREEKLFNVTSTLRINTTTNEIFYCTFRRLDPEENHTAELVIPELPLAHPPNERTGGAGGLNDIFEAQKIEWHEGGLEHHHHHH

hPD-L1/mPD-1 interaction = target: T3, hPD-L1/mPD-1 interaction (Homo sapiens, UniProt Q9NZQ7); assay: ELISA/IP assay of hPD-L1/mPD-1 interaction; type: biochemical; conditions: 10 μM SPAM
T3 construct: designed from A18 to T239 with a methionine added to the N-terminus; hexahistidine tag (C); made in house; host or cells: E. coli BL21 (DE3)
Procedure: An ELISA-based activity assay was employed to measure the potency of SPAM peptide inhibition of the hPD-L1/PD-1 interaction (FIG. 4C-D). In this assay, biotinylated hPD-L1 was immobilized on streptavidin magnetic beads and incubated with various concentrations of SPAM peptide, followed by incubation with HA-tagged mPD-1 and detection with anti-HA secondary antibody.
For ELISA/IP assays, 20 L of MyOne™ Streptavidin T1 magnetic beads Dynabeads™ (Thermo Fisher Scientific) were loaded with 100 nM biotinylated hPD-L1 in assay buffer (20 mM HEPES-KOH pH 7.5, 150 mM NaCl, 0.2% (v/v) Tween-20, 1 mg/mL BSA and 50 μg/mL tRNA) at 4° C. The beads were subsequently washed and incubated with either DMSO or different concentrations of SPAM peptide (0.1, 1 or 10 μM) in the assay buffer for 1 h at 4° C. followed by adding HA-tagged mPD-1 (100 nM) for 1 h at 4° C. The samples were then washed and incubated with a 1:5,000 dilution of HRP conjugated anti-HA antibody (Pierce HA Antibody, Rockford. Il, USA) for 1 h at 4° C. The beads were washed again and developed with TMB Substrate Kit (Thermo Scientific) for 30 minutes and the reactions stopped by adding 100 L of […] sulfuric acid. The absorbance at 450 nm was measured on a Biotek Synergy H1 Hybrid Multi-Mode Microplate Reader.

[2] = target: T4, hPD-L1 expressed on the surface of Chinese hamster ovary (CHO) cells (CHO-hPD-L1) (Homo sapiens, UniProt Q9NZQ7); assay: Antibody competition by flow cytometry on CHO-hPD-L1 cells; type: cell-based
T4 construct: expressed in transfected cells; host or cells: CHO
Excerpt: To do this, we measured SPAM peptide inhibition of anti-PD-L1 antibody binding to hPD-L1 expressed on the surface of Chinese hamster ovary (CHO) cells (CHO-hPD-L1). […] Cells were washed again and analyzed by flow cytometry (FIG. 5B-C).
Cells were then washed three times with cold serum free DMEM. Cells were subsequently processed by flow cytometry with a BD FACSCalibur system using the FL1 channel. FlowJo v10.1 was used to gate to the major population and median FL1 fluorescence reported.

hPD-L1 [3] = target: T2, hPD-L1; assay: Radiolabeled [35S] peptide binding assay on glycosylated hPD-L1*; set-up: The hPD-L1* vector included amino acids A18-T239, an Avi Tag and a hexahistidine tag; hexahistidine tag; made in house; host or cells: Expi293F
Procedure: as §1, §2
Target sequence in this assay (Q9NZQ7 18-239): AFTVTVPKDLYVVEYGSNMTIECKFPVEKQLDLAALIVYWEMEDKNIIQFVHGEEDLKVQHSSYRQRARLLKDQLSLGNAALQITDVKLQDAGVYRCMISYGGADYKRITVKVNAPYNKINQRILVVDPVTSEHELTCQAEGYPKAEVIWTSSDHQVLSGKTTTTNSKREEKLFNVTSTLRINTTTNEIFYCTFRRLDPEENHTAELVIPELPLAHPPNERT

[4] = Serum stability of ROX-SPAM by HPLC; type: in vitro ADME; conditions: 25% human serum, 37° C., up to five hours
Procedure: We first tested SPAM peptide stability by performing an HPLC-based assay to test if SPAM is degraded by human serum. We incubated ROX-labeled SPAM with 25% human serum at 37° C., took aliquots at different time points, then analyzed the products using HPLC.
At times 0, 15, 30, 120 and 300 min, 40 μL was removed and protein precipitated by the addition of 80 μL ethanol. Samples were centrifuged for 10 min at 16,000×g and the supernatant removed for HPLC analysis. A total of 100 μL volume was injected in a HPLC gradient of 10^−95% Buffer B over 15 minutes (Buffer A: dH2O with 0.1% (v/v) TFA, Buffer B: CH3CN+0.1% (v/v) TFA). Detection was performed at 570 nm.

T3 sequence (Q9NZQ7 with tags, fused parts or gaps): as the sequence (Q9NZQ7 with tags, fused parts or gaps) above
T4 sequence (Q9NZQ7 19-290): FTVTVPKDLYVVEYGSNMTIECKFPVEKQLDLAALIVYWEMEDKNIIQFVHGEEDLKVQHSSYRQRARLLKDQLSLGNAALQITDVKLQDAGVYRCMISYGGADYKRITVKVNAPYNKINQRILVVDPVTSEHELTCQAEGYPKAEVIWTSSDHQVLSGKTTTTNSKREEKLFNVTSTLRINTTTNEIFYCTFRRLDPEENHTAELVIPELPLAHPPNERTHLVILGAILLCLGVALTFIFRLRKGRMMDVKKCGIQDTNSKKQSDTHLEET

For `C#CC[C@H](NC(=O)CNC(=O)[C@H](CO)NC(=O)[C@H](C)NC(=O)[C@H](Cc1ccc(O)cc1)NC(=O)[C@H](Cc1c[nH]cn1)NC(=O)[C@H](CC(C)C)NC(=O)[C@@H](NC(=O)[C@H](Cc1c[nH]c2ccccc12)NC(=O)[C@H](Cc1ccccc1)NC(=O)[C@H](CCCCN)NC(=O)[C@H](CC(N)=O)NC(=O)[C@H](CC(C)C)NC(=O)[C@@H](NC(=O)[C@H](Cc1c[nH]cn1)NC(=O)[C@H](CC(=O)O)NC(=O)[C@H](CC(C)C)NC(=O)[C@H](Cc1ccccc1)NC(=O)[C@@H](NC(=O)[C@@H]1CCCN1C(=O)[C@@H](N)CCSC)[C@@H](C)CC)[C@@H](C)CC)[C@@H](C)CC)C(N)=O` (stereo in doubt) [SPAM], the “binding to hPD-L2” value (human PD-L2 (hPD-L2)) was “no significant binding; also recorded: essentially no binding”, the “loss of binding in presence of human serum” value (hPD-L1 [1]) was ~25% and the “binding to immobilized hPD-L1 after serum incubation” value (“binding to immobilized hPD-L1” for short) (hPD-L1 [1]; eight hours) was “no further decrease”. The “binding to immobilized hPD-L1” value (hPD-L1 [1]; four hours) was “slight decrease”, the “binding to immobilized hPD-L1” value (hPD-L1 [1]; two hours) was “No decrease” and the “inhibition of mPD-1 binding to hPD-L1” value (hPD-L1/mPD-1 interaction) was “almost completely disrupted; also recorded: almost completely inhibits”. The “Fluorescein-Atezolizumab and Fluorescein-Avelumab binding to CHO-hPD-L1 after pre-incubation” value ([2]; pre-incubation 30 min 4° C., 0-20 μM, SPAM effect at 20 μM, 1 nM Atezolizumab, 10 nM Avelumab) was “significant decrease”, the “blocking of Fluorescein-16373 and Fluorescein-16377 in CHO-hPD-L1 cells” value ([2]; pre-treatment 0-20 μM, 50 nM antibody) was “blocking” and the “[35S]-labeled peptide capture by hPD-L1*” value (hPD-L1 [3]) was “captured”. The “degradation in human serum (HPLC)” value [4] was “stable”.

— US12643935B2, “PD-L1 binding peptides” (UNIVERSITY OF SOUTHERN CALIFORNIA, priority 2020, dated 2026)
